The text below walks through data of BindingDB's records for doi:10.7270/Q23B5XSC (Nmmlsc, 2012).

In the assay the target is C-C chemokine receptor type 5 (Homo sapiens, UniProt P51681).
C-C chemokine receptor type 5, sequence (P51681 whole entry): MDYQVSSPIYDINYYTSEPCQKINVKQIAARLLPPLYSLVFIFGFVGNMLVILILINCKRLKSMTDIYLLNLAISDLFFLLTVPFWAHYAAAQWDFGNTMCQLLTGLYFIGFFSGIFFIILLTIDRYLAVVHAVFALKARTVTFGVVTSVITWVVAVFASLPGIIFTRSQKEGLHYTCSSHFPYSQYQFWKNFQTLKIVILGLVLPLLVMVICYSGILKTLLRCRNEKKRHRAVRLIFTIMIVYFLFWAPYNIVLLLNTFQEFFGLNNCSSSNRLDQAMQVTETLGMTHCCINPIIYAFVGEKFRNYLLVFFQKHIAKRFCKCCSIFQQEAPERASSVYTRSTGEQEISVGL
As to `CN(CC(=O)N1CCN(c2ccccn2)CC1)S(=O)(=O)c1ccc(Cl)cc1`, the EC50 was found to be 7.46 nM. For `CC(=O)Nc1ccc(S(=O)(=O)NCCc2csc(-c3cccnc3)n2)cc1`, the midpoint of the response, the EC50, lay at 19.6 nM. `CCOC(=O)c1ccc(NC(=O)COc2ccc(S(=O)(=O)N3CCCC3)cc2)cc1` [SMR000124597] showed an EC50 of 188 nM. The same measure for `CCOC(=O)c1ccc(NC(=O)Cn2nnc(-c3ccccc3)n2)cc1` [SMR000021419]: 123 nM.
